Converted amounts (≈) assume the structure as drawn.
Test: Antifungal activity against Candida albicans clinical isolate by serial twofold dilution microtitre plate method
Assay type: functional

Question: For `COc1ccc2oc(=O)sc2c1C(=O)/C=C/c1ccc(OCCCN(C)C)cc1`, which MIC is on record?
Answer: 1 mg/L (≈ 2.42 µM)
